Drawing on US20230183226A1, “AKT3 MODULATORS” (Georgiamune LLC, priority 2020, published 2023), this text covers EC50 for one substance.

The assay addresses Akt3 (Homo sapiens, UniProt Q9Y243). Nature of the assay: Akt3 inhibition and activation activity (Foxp3 induction assay / Jurkat-FoxP3 luciferase reporter assay). The class given is cell-based. Conditions: Table 2. The protocol:
Sorted or enriched (Miltenyi magnetic separation) CD4 conventional T cells (Tconvs−CD4+/CD25) from C57/Bl6 mice were used for the induction of iTregs. A 10 µg/mL plate-bound anti-CD3 antibody (50 ul per well for 96-well plate), […] of soluble anti-CD28 antibody, 100 IU/mL of IL2 and 5 ng/mL of TGF-β in absence or presence of different concentrations of drug (usually titrating from 0.01 uM to 10 uM) were used. As negative control for induction, samples without TGF-β were used.
After 3 days of culture in presence of stimulation, TGF-β and drug, cells were stained with fixable live/dead cell stain (Life Technologies, NY) for gating and exclusion of toxic doses. The mouse Foxp3 buffer kit was used to fix and permeabilize cells according to the manufacturer's instructions (BD Bioscience, San Jose, Calif.). The anti-CD4 antibody and anti-Foxp3 antibody were used to stain the cells. After staining, cells were acquired using flow cytometer.
Cells Culture Process: Prepare a 50 ml conical tube and a T-25 culture flask with 5 ml of pre-warmed Thaw Medium 2 (no G418). Quickly thaw cells in a 37° C. water bath with constant and slow agitation. Immediately transfer the entire contents to the conical tube with Thaw Medium 2 (no G418) and centrifuge the cells at 200×g for 3 minutes.
On the technique in general: A reporter such as luciferase makes a cellular process visible.

Sequence of Akt3 (Q9Y243 2-479): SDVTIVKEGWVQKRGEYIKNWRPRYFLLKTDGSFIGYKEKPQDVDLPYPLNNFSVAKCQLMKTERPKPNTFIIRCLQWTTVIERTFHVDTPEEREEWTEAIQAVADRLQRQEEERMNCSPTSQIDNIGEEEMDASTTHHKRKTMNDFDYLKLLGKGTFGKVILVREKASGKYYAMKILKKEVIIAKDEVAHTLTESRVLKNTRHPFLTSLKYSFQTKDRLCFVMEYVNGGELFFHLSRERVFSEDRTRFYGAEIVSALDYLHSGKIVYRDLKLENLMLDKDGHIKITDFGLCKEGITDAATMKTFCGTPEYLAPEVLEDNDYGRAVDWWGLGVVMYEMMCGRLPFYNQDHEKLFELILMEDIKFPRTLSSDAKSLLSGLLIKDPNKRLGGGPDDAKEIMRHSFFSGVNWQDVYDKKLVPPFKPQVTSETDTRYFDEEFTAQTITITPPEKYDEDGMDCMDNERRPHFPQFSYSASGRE

In general, EC50 refers to the concentration at which the effect is half-maximal. Read a low EC50 as greater potency. Turning to “6-(2,6-dimethylmorpholino)-2-methyl-N-(4-(5-(2-methylpyridin-4-ylamino)-1H-benzo[d]imidazol-2-yl)phenyl)quinolin-4-amine [Compound 128]”, the EC50 is under 50 nM.
